Counter-ions that a name gives are not always drawn.
What was measured:
Type in all cases: cell-based, mouse
Gpr132 = assay: calcium mobilization assay in BMDMs; conditions: WT or Gpr132-KO BMDMs stimulated with 25 mM
Method: FIG. 27. […] WT or Gpr132-KO BMDMs were stimulated with 25 mM lactate (Left) or HCl (Right) (n=3).
To determine whether Gpr132 is required for lactate signaling in macrophages, a calcium mobilization assay was performed. […] First, lactate levels in the CM of distinct cancer cell lines were measured using a Vitros 250 chemistry analyzer. […] Second, the effects of blocking lactate production from EO771 and 4T1.2 cells by oxamic acid, an inhibitor of lactate dehydrogenase was tested.

EO771 and 4T1.2 cells = assay: lactate and pH in cancer cell conditioned media; conditions: oxamic acid 90 mM for 3 days, CM after another 24 hrs
Method: FIGS. 18A-18E. Lactate secreted by EO771 and 4T1.2 cells is responsible for the low pH in their CM. (FIG. 18A) Lactate levels in the conditional media (CM) from various cancer cells (n=3); *p<0.05, ****p<0.001 compared with EO771 CM; #### p<0.001 compared with 4T1.2 CM. (FIG. 18B) Lactate levels in EO771 CM at the indicated time point of culture (n=3). (FIG. 18C) Lactate levels in the whole CM, <3 kDa and >3 kDa fractions of CM from 24 h EO771 cell cultures (n=3). (FIGS. 18D-18E) EO771 and 4T1.2 cells were treated with or without oxamic acid (90 mM) for 3 days. CM was harvested after the cells were cultured for another 24 hrs without oxamic acid before lactate (FIG. 18D) and pH (FIG. 18E) quantification (n=3). **p<0.01, ***p<0.005, ****p<0.001.
RAW264.7, EO771, 4T1.2, PY8119, PY230, SCP-4, SCP-6, SCP-28, MDA-1883, MDA-2287 and B16F10 cell lines were cultured in culture media containing 10% FBS (Sigma) and 1:100 antibiotic-antimycotic (Gibco). Conditioned media were obtained from serum-free media after culturing cells for 24 hrs or as indicated. Bone marrow-derived macrophages (BMDMs) and spleen-derived macrophages from WT and Gpr132-KO mice were cultured as previously described. Lactate in the conditioned media was quantified using a Vitros 250 chemistry analyzer at the UT Southwestern Metabolic Phenotyping Core.

[1] = tested on: bone marrow derived macrophages (BMDMs); assay: macrophage M2-like morphology (elongation); conditions: cancer cells treated with oxamic acid 90 mM for 3 days before CM harvest
Text: FIGS. 9A-9D. Tumor-derived factors activate M2-like macrophages via Gpr132. (FIG. 9A) The pH values of conditioned media (CM) from cancer cells or macrophages (n=5-8); *p<0.05, ****p<0.001 compared with RAW 264.7 macrophage CM. (FIG. 9B) Western blot for CD206 and Gpr132 in RAW 264.7 macrophages after treatment with indicated cancer cell CM for 24 hrs. Actin was used as a loading control. The CD206/actin or Gpr132/actin ratio was quantified and shown as fold changes compared to control (n=3); *p<0.05, ***p<0.005 compared with control. (FIG. 9C) Flow cytometry analysis of Gpr132 and CD206 in BMDMs with or without EO771 CM treatment. The experiments were repeated twice and the representative results are shown. (FIG. 9D) Immunofluorescence staining for CD11b in WT and Gpr132-KO BMDMs after differentiation in the absence or presence of 30% EO771 CM or 4T1.2 CM for 7 days. Elongated macrophage morphology indicates a M2-like phenotype. Nuclei were stained with DAPI. Scale bar, 25 μm. WT, wild-type; Gpr132-KO, Gpr132 knockout.
FIGS. 10A-10F. […] LC-MS was used to quantify lactate in the eluent of Gpr132 co-IP. (Left) Representative LC-MS chromatograms; (Right) Quantification of relative lactate binding (n=3). ****p<0.001 compared with WT. […] CD206/actin ratio was quantified and shown as fold changes compared to control (n=3-4); *p<0.05 compared with WT control. […]

[2] = tested on: breast cancer cells (4T1.2, EO771); assay: Boyden chamber assay, cancer cell migration; conditions: oxamic acid 90 mM pre-treatment; WT macrophages
Method: (§1) FIGS. 11A-11C. Lactate-activated macrophage promotes cancer cell adhesion, migration and invasion via Gpr132. (FIG. 11A) Adherence assays. 4T1.2 cells were suspended in fibronectin ([…]) pre-coated plates with CM from spleen-derived macrophages (mf) that were treated with 4T1.2 CM or lactate (5 mM) with or without Gpr132 antibody (6 mg/ml) or normal IgG (6 mg/ml) for 10 min. The adhered cells were stained with crystal violet, dissolved in 1% Triton X-100 and measured by OD590. (FIGS. 11B-11C) Boyden chamber assay of cancer cell migration and invasion. 4T1.2 cells (B) or EO771 cells (FIG. 11C) were plated on the upper chamber inserts, with untreated (Control), 4T1.2 CM-activated or lactate-activated spleen-derived WT or Gpr132-KO macrophages plated in the lower chambers. For invasion assay, the inserts were pre-coated with 60 μl matrigel. After migration for 6 hrs (FIG. 11B) or invasion for 24 hrs (FIG. 11C), the migrated or invaded cells were stained with crystal violet and counted as cells per field of view under microscope (n=3-4); For (FIG. 11C), the first bar of each data set of the bar graphs represents the control mf, and the second bar represents Gpr132KO; *p<0.05; **p<0.01; ***p<0.005; ****p<0.001. Scale bar, 500 μm.
(§2) FIGS. 23A-23B. Cancer cell-derived lactate activates macrophages to promote cancer cell migration and invasion via Gpr132. (FIGS. 23A-23B) Boyden chamber assay. EO771 or 4T1.2 cells were cultured in the presence or absence of oxamic acid (90 mM) for 3 days. CM was harvested after the cells were cultured for another 24 hrs without oxamic acid. As a rescue, CM of oxamic acid-treated EO771 or 4T1.2 cells was supplemented with exogenous lactate. […] After migration for 6 hrs (FIG. 23A) or invasion for 24 hrs (FIG. 23B), the migrated or invaded cells were stained with crystal violet and counted as cells per field of view under microscope (n=3-4); for (FIG. 23A), the bars in each data set of the bar graph represent, from left to right, control, EO771, Oxamic acid, and Oxamic acid+Lactate; for (FIG. 23B), the bars in each data set of the bar graph represent, from left to right, control, 4T1.2CM, Oxamic acid, and Oxamic acid+Lactate; *p<0.05; ****p<0.001. […]
Migration or invasion of breast cancer cells was examined using 24-well Boyden chambers (Corning, Corning, N.Y.) with transwell inserts of […] pore size, coated without (for migration) or with matrigel (for invasion) as previously reported. […] The migrated or invaded cells were fixed with methanol and stained with crystal violet (0.05%, sigma), and then counted as cells per field of view under microscope or measured as OD570 after crystal violet was dissolved.

[3] = tested on: breast cancer cells (EO771, 4T1.2); assay: Boyden chamber assay, cancer cell invasion (matrigel); conditions: oxamic acid 90 mM pre-treatment; WT macrophages
Method: as §1
as §2, with “acid.” for “acid. As a rescue, CM of oxamic acid-treated EO771 or 4T1.2 cells was supplemented with exogenous lactate.”

macrophages = assay: M2 marker expression in macrophages (Western blot, RT-qPCR, flow cytometry); conditions: IL-4 10 ng/ml for 16 hrs, spleen macrophages
Method: After blocking with 10% BSA for 10 min, cells were incubated with anti-CD206 (Rabbit polyclonal, Abcam) or anti-Gpr132 (Rabbit polyclonal, Sigma) antibodies (1:100) for 30 min at 4° C., washed with cold PBS, and then incubated with FITC-conjugated secondary antibodies (1:100) for 30 min at 4° C. After washing twice using cold PBS, cells were analyzed by flow cytometer (Becton Dickinson). RNA was isolated from cells or mouse tissues using Trizol (Invitrogen) following the manufacturer's instructions. RNA (200-500 ng) was first treated with RNase-free DNase I using the DNA-free kit (Ambion) to remove all genomic DNA, and then reverse-transcribed into cDNA using an ABI High Capacity cDNA RT Kit (Invitrogen). The cDNA was analyzed using real-time quantitative PCR (SYBR Green, Invitrogen) with an Applied Biosystems 7900 Sequence Detection System. Each reaction was performed in triplicate in a 384-well format. The expression of each gene was normalized by that of mouse ribosomal protein L19. Samples of 20 μg protein were applied to SDS polyacrylamide gels. After protein transfer, membranes were incubated with antibodies for […] (rabbit polyclonal, Santa Cruz Biotechnology), CD206, Gpr132, or β-actin (mouse monoclonal, Sigma) (1:1000) overnight at 4° C. Membranes were washed, and then incubated with HRP-conjugated secondary antibodies (1:1000) for 1 hr at room temperature before signal detection by chemiluminescence (Pierce). Densitometric quantification was performed by Image-Pro Plus 6.0 software (Media Cybernetics). PathScan Akt Signaling Antibody Array (Cell Signaling) was incubated with macrophage proteins and analyzed following kit instructions.

## Cl [hydrochloric acid (HCl), hydrochloric acid]
Gpr132
  effect of Gpr132 deletion on triggered calcium mobilization: not

## NC(=O)C(=O)O [oxamic acid]
EO771 and 4T1.2 cells
  lactate in the CM: depleted
[1]
  ability of EO771 or 4T1.2 CM to induce M2-like morphology in WT BMDMs: completely abolished
[2]
  effects of CM-activated WT macrophages on cancer cell migration after pre-treatment of cancer cells: abolished
[3]
  effects of CM-activated WT macrophages on cancer cell invasion after pre-treatment of cancer cells: abolished

B1: IL-4: standard T helper 2 cytokine used to trigger macrophage M2 activation (protein, UniProt P05112 25-153, looked up)
Interleukin-4: HKCDITLQEIIKTLNSLTEQKTLCTELTVTDIFAASKNTTEKETFCRAATVLRQFYSHHEKDTRCLGATAQQFHRHKQLIRFLKRLDRNLWGLAGLNSCPVKEANQSTLENFLERLKTIMREKYSKCSS
macrophages
  induction of M2 markers (Arg-1, CCL17, CCL22, PPAR-γ, YM-1, YM-2), WT vs Gpr132-KO macrophages: equally well

Source: patent US20210095293A1, “METHODS OF TREATING CANCERS WITH GPR132 INHIBITORS” (The Board of Regents of the University of Texas System, priority 2016, published 2021)
